Experimental data reported in patent US20260176267A1, “PREPARATION OF IMIDAZOPYRIDINE AND IMIDAZOPYRIDAZINE DERIVATIVES AS NOVEL DIACYLGLYCERIDE O-ACYLTRANSFERASE 2 INHIBITORS” (Merck Sharp & Dohme LLC, priority 2022, published 2026).

biological target: T1, human DGAT2 (hDGAT2) (Homo sapiens, UniProt Q96PD7); assay: DGAT2 Enzymatic Activity Assay; assay type: biochemical; conditions: membrane prep of Sf-9 cells expressing hDGAT2; 13C18-triolein product by LC/MS/MS; 25 μM diolein, 5 μM 13C oleoyl-CoA, rt
T1 construct: made in house; host or cells: Sf-9 insect cells (baculovirus), membrane fraction
T1 sequence (Q96PD7 1-388): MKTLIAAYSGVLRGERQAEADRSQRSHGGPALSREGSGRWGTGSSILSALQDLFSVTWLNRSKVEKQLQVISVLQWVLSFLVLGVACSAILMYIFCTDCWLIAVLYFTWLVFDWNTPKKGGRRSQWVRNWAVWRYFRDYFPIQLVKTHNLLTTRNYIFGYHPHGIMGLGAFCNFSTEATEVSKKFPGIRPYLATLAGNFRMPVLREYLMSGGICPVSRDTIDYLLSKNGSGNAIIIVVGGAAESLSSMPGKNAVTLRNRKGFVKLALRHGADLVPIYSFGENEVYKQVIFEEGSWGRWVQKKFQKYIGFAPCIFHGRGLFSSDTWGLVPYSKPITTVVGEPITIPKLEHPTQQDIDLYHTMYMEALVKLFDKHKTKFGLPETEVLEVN
Procedure: Sf-9 insect cells were maintained in Grace's insect cell culture medium with 10% heated-inactivated fetal bovine serum, 1% Pluronic F-68 and 0.14 μg/ml Kanamycine sulfate at 27° C. in a shaker incubator. After infection with untagged baculovirus expressing human DGAT2 (hDGAT2) at multiplicity of infection (MOI) 3 for 48 hours, cells were harvested. Cell pellets were suspended in buffer containing 10 mM Tris-HCl pH 7.5, 1 mM EDTA, 250 mM sucrose and Complete Protease Inhibitor Cocktail (Sigma Aldrich), and sonicated on ice. Cell debris were removed by centrifugation at 2000×g for 15 minutes. Membrane fractions were isolated by ultracentrifugation (100,000×g), resuspended in the same buffer, and frozen (−80° C.) for later use. The protein concentration was determined with the Pierce™ BCA Protein Assay Kit (Thermo Fisher Scientific).
LC/MS/MS analyses were performed using Thermal Fisher's LX4-TSQ Vantage system. This system consists of an Agilent binary high-performance liquid chromatography (HPLC) pump and a TSQ Vantage triple quadrupole MS/MS instrument. For each sample, 2 μL samples from the top organic layer of in-plate liquid-liquid extraction were injected onto a Thermo Betabasic C4 column (2.1 mm×20 mm, 5 μm particle size). The samples were then eluted using the following conditions; mobile phase: Isopropanol:acetonitrile/10 mM ammonium formate=50/35/15 (v/v/v), flow rate: 0.8 mL/min, temperature: 25° C. Data was acquired in positive mode using a heated electrospray ionization (HESI) interface. The operational parameters for the TSQ Vantage MS/MS instrument were a spray voltage of 3000 V, capillary temperature of 280° C., vaporizer temperature 400° C., sheath gas 45 arbitrary unit. Aux gas 10 arbitrary units. […] The peak area was integrated by Xcalibur Quan software. The ratio between the ^13C18 triolein generated in the reaction and spiked in internal standard ^13C21-triolein was used to generate percentage inhibition and IC50 values. Compound percentage inhibition was calculated by the following formula: Inhibition %=1−[(compound response−low control)/(high control−low control)]×100%.
DGAT2 activity was determined by measuring the amount of enzymatic product ^13C18-triolein (^13C-1,2,3-Tri(cis-9-octadecenoyl)glycerol) using the membrane prep mentioned above. The assay was carried out in ABgene 384-well assay plates in a final volume of 25 μL at rt.

IC50 [nM]	Structure (SMILES)
5	CC1(NC(=O)c2cn3cc(Oc4ncc(Cl)cc4OCC(F)(F)F)ccc3n2)CS(=O)(=O)C1 [Example 1, 6-[[5-Chloro-3-(2,2,2-trifluoroethoxy)-2-pyridyl]oxy]-N-(3-methyl-1,1-dioxo-thietan-3-yl)imidazo[1,2-a]pyridine-2-carboxamide]
5.8	CCOc1cccnc1Oc1ccc2nc(C(=O)NC3(C)CCC(F)(F)CC3)cn2c1 [Example 3, N-(4,4-difluoro-1-methyl-cyclohexyl)-6-[(3-ethoxy-2-pyridyl)oxy]imidazo[1,2-a]pyridine-2-carboxamide]
36	O=C(NC1(CC(F)(F)F)CCS(=O)(=O)CC1)c1cn2cc(Oc3ncc(Cl)cc3OCC(F)(F)F)ccc2n1 [Example 5, 6-[[5-chloro-3-(2,2,2-trifluoroethoxy)-2-pyridyl]oxy]-N-[1,1-dioxo-4-(2,2,2-trifluoroethyl)thian-4-yl]imidazo[1,2-a]pyridine-2-carboxamide]
4.7	CC1(NC(=O)c2cn3cc(Oc4ncccc4OCC(F)(F)F)cc(F)c3n2)CCS(=O)(=O)CC1 [Example 7, 8-fluoro-N-(4-methyl-1,1-dioxo-thian-4-yl)-6-[[3-(2,2,2-trifluoroethoxy)-2-pyridyl]oxy]imidazo[1,2-a]pyridine-2-carboxamide]
1.4	CCOc1cc(Cl)cnc1Oc1ccc2nc(C(=O)NC3(C)CCS(=O)(=O)CC3)cn2c1C [Example 8, 6-[(5-chloro-3-ethoxy-2-pyridyl)oxy]-5-methyl-N-(4-methyl-1,1-dioxo-thian-4-yl)imidazo[1,2-a]pyridine-2-carboxamide]
13	Cc1cc2nc(C(=O)NC3(C)CCS(=O)(=O)CC3)cn2cc1Oc1ncc(Cl)cc1OCC1(F)CC1 [Example 10, 6-[[5-chloro-3-[(1-fluorocyclopropyl)methoxy]-2-pyridyl]oxy]-7-methyl-N-(4-methyl-1,1-dioxo-thian-4-yl)imidazo[1,2-a]pyridine-2-carboxamide]
23	CC1(NC(=O)c2cn3cc(Oc4ncc(Cl)cc4OCC(F)F)ccc3n2)CS(=O)(=O)C1 [Example 11, 6-[[5-chloro-3-(2,2-difluoroethoxy)-2-pyridyl]oxy]-N-(3-methyl-1,1-dioxo-thietan-3-yl)imidazo[1,2-a]pyridine-2-carboxamide]
5.6	Cc1cc2nc(C(=O)NC3(CC(F)(F)F)CCS(=O)(=O)CC3)cn2cc1Oc1ncc(Cl)cc1OCC(F)(F)F [Example 12, 6-[[5-chloro-3-(2,2,2-trifluoroethoxy)-2-pyridyl]oxy]-N-[1,1-dioxo-4-(2,2,2-trifluoroethyl)thian-4-yl]-7-methyl-imidazo[1,2-a]pyridine-2-carboxamide]
4.3	CC1(NC(=O)c2cn3cc(Oc4ncc(Cl)cc4OCC(F)(F)F)c(Cl)cc3n2)CCS(=O)(=O)CC1 [Example 13, 7-chloro-6-[5-chloro-3-(2,2,2-trifluoroethoxy)pyridine-2-yl]oxy-N-(4-methyl-1,1-dioxo-thian-4-yl)imidazo[1,2-a]pyridine-2-carboxamide]
5.3	CC1(NC(=O)c2cn3cc(Oc4ncccc4OCC(F)(F)F)ccc3n2)CCS(=O)(=O)CC1 [Example 14, N-(4-methyl-1,1-dioxo-thian-4-yl)-6-[[3-(2,2,2-trifluoroethoxy)-2-pyridyl]oxy]imidazo[1,2-a]pyridine-2-carboxamide]
11	Cc1c(Oc2ncc(Cl)cc2OCC(F)(F)F)cc(F)c2nc(C(=O)NC3(C)CCS(=O)(=O)CC3)cn12 [Example 15, 6-[[5-chloro-3-(2,2,2-trifluoroethoxy)-2-pyridyl]oxy]-8-fluoro-5-methyl-N-(4-methyl-1,1-dioxo-thian-4-yl)imidazo[1,2-a]pyridine-2-carboxamide]
4.5	O=C(N[C@H]1CCCC(F)(F)[C@@H]1O)c1cn2cc(Oc3ncc(F)cc3OCC(F)(F)F)ccc2n1 [Example 16, N-[(1S,2R)-3,3-difluoro-2-hydroxy-cyclohexyl]-6-[[5-fluoro-3-(2,2,2-trifluoroethoxy)-2-pyridyl]oxy]imidazo[1,2-a]pyridine-2-carboxamide]
1.4	Cc1c(Oc2ncc(Cl)cc2OCC(F)(F)F)ccc2nc(C(=O)NC3(C)CCS(=O)(=O)CC3)cn12 [Example 17]
2	CC(F)(F)COc1cc(Cl)cnc1Oc1ccc2nc(C(=O)NC3(C)CCS(=O)(=O)CC3)cn2c1 [Example 18, 6-[[5-chloro-3-(2,2-difluoropropoxy)-2-pyridyl]oxy]-N-(4-methyl-1,1-dioxo-thian-4-yl)imidazo[1,2-a]pyridine-2-carboxamide]
7.7	Cc1cc2nc(C(=O)NC3(C)CCS(=O)(=O)CC3)cn2cc1Oc1ncc(F)cc1OCC(C)(F)F [Example 19, 6-[[3-(2,2-difluoropropoxy)-5-fluoro-2-pyridyl]oxy]-7-methyl-N-(4-methyl-1,1-dioxo-thian-4-yl)imidazo[1,2-a]pyridine-2-carboxamide]
17.3	Cc1cc2nc(C(=O)NC3(C)CCS(=O)(=O)CC3)cn2cc1Oc1nccnc1OCC(F)(F)F [Example 20, 7-methyl-N-(4-methyl-1,1-dioxidotetrahydro-2H-thiopyran-4-yl)-6-((3-(2,2,2-trifluoroethoxy)pyrazin-2-yl)oxy)imidazo[1,2-a]pyridine-2-carboxamide]
1.8	CC1(NC(=O)c2cn3cc(Oc4ncc(F)cc4OCC(F)(F)F)c(F)cc3n2)CCS(=O)(=O)CC1 [Example 21, 7-fluoro-6-[[5-fluoro-3-(2,2,2-trifluoroethoxy)-2-pyridyl]oxy]-N-(4-methyl-1,1-dioxo-thian-4-yl)imidazo[1,2-a]pyridine-2-carboxamide]
3.5	CCOc1cccnc1Oc1ccc2nc(C(=O)N[C@H]3CCCC[C@@H]3O)cn2c1 [Example 22, 6-[(3-ethoxy-2-pyridyl)oxy]-N-[(1S,2S)-2-hydroxycyclohexyl]imidazo [1,2-a]pyridine-2-carboxamide]
31	CCOc1cccnc1Oc1ccc2nc(C(=O)NC3(C)CC(F)(F)C3)cn2c1 [Example 23, N-(3,3-difluoro-1-methyl-cyclobutyl)-6-[(3-ethoxy-2-pyridyl)oxy]imidazo[1,2-a]pyridine-2-carboxamide]
117	Cc1cc(Oc2ncccc2OCC(F)(F)F)cn2cc(C(=O)NC3(C)CCS(=O)(=O)CC3)nc12 [Example 24, 8-methyl-N-(4-methyl-1,1-dioxo-thian-4-yl)-6-[[3-(2,2,2-trifluoroethoxy)-2-pyridyl]oxy]imidazo[1,2-a]pyridine-2-carboxamide]
3.8	Cc1cc2nc(C(=O)NC3(C)CC(F)(F)C3)cn2cc1Oc1ncc(F)cc1OCC(F)F [Example 25, 6-[[3-(2,2-difluoroethoxy)-5-fluoro-2-pyridyl]oxy]-N-(3,3-difluoro-1-methyl-cyclobutyl)-7-methyl-imidazo[1,2-a]pyridine-2-carboxamide]
10	CCOc1cccnc1Oc1ccc2nc(C(=O)N[C@H]3CC[C@](OC)(C(F)(F)F)CC3)cn2c1 [Example 26, 6-[(3-ethoxy-2-pyridyl)oxy]-N-[4-methoxy-4-(trifluoromethyl)cyclohexyl] imidazo[1,2-a]pyridine-2-carboxamide]
59	Cc1c(Oc2ncc(F)cc2OCC(F)F)ccc2nc(C(=O)NC3(C)CC(F)(F)C3)cn12 [Example 28, 6-[[3-(2,2-difluoroethoxy)-5-fluoro-2-pyridyl]oxy]-N-(3,3-difluoro-1-methyl-cyclobutyl)-5-methyl-imidazo[1,2-a]pyridine-2-carboxamide]
13	Cc1cc2nc(C(=O)NC3(C)CCS(=O)(=O)CC3)cn2cc1Oc1ncc(F)cc1OCC(F)(F)F [Example 29, 6-[[5-fluoro-3-(2,2,2-trifluoroethoxy)-2-pyridyl]oxy]-7-methyl-N-(4-methyl-1,1-dioxo-thian-4-yl)imidazo[1,2-a]pyridine-2-carboxamide]
